# Columns and labels:
# [1] = system: rats, thrombus formation in abdominal aorta; assay: Thrombus formation in anesthetized rats (abdominal aorta stenosis and compression injury); format: in vivo, rats (CD-1); conditions: intravenous via tail vein, 5 min before injury; written in present tense
# Method: To evaluate the effect of dapansutrile on thrombus formation in vivo, the following experimental protocol is performed.
# Rats (CD-1; male; approximately 350 grams; Charles River, Raleigh, NC), are anesthetized with sodium pentobarbital (70 mg/kg i.p.). The abdomens are shaved and a 22 gauge intravenous catheter is inserted into a lateral tail vein. A midline incision is made and the intestines are wrapped in saline-soaked gauze and positioned so the abdominal aorta is accessible. […] All branches from the aorta in this section are ligated with 4-0 silk suture. A 2.5 mm diameter flow probe connected to a Transonic flow meter is placed on the artery and a baseline (pre-stenosis) flow is recorded. Two clips are placed around the artery decreasing the vessel diameter by approximately 80%. A second baseline flow measurement is taken (post-stenosis) and the hyperemic response is tested. Animals are then treated with either Rho kinase inhibitor compound or saline intravenously via tail vein catheter. Thrombosis is induced five minutes after treatment by repeated external compressions of the vessel with hemostatic forceps. Two minutes post-injury, the vessel compressions are repeated and a 10 minute period of flow monitoring is started. Animals are monitored continuously for a minimum of the first ten minutes post-injury. […]
# [2] = system: IL-1β release from human monocytes-derived macrophages; assay: Suppression of IL-1β release from human monocytes-derived macrophages (LPS priming, nigericin release, ELISA); format: cell-based
# Method: Peripheral blood mononuclear cells (PBMCs) were isolated from blood of 6 healthy human donors and differenciates in macrophages using GM-CSF (5 ng/ml) for 5 days. They were stimulated with 1 μg/mL with lipopolysaccharide (LPS, priming phase) at time zero. At 30 minutes, they were incubated with different concentrations of dapansutrile (OLT1177™) from 0.001-100 μM. At 4 hours, 10 μM of nigericin (NIG, release phase) was added. At the end of an 5 hour incubation period, the supernatant was harvested and assayed for IL-1β or IL-18 using respective ELISA kits following manafacturer's protocols.
structure (smiles),measurement,setting,value
"CS(=O)(=O)CCC#N [OLT1177™, 3-methanesulfonyl-propionitrile]",histological evidence of thrombosis,[1],decrease
same,vessel injury-induced flow reduction,[1],decrease
same,concentration of maximum suppression effect on IL-1β release,"[2]; HMDM, 1 μg/mL LPS then 10 μM nigericin, 0.001-100 μM tested",1 µM
same,release of IL-1β from stimulated monocytes-derived macrophages,"[2]; LPS/nigericin, compared to control",suppresses

# From patent publication US12318361B2, “Methods for treating cardiovascular diseases” (Olatec Therapeutics LLC, priority 2017, dated 2025)
